The results in this text go back to paper PMC7761830, “Structure-Based Virtual Screening of Ultra-Large Library Yields Potent Antagonists for a Lipid GPCR” (Biomolecules, 2020).

One assay addresses T1, wild-type CysLT1R (Homo sapiens, UniProt Q9Y271).
T1 construct: expressed in transfected cells; host or cells: HEK293 (ATCC CRL-1573), transient transfection with Lipofectamine 3000
T1 sequence (Q9Y271 1-337): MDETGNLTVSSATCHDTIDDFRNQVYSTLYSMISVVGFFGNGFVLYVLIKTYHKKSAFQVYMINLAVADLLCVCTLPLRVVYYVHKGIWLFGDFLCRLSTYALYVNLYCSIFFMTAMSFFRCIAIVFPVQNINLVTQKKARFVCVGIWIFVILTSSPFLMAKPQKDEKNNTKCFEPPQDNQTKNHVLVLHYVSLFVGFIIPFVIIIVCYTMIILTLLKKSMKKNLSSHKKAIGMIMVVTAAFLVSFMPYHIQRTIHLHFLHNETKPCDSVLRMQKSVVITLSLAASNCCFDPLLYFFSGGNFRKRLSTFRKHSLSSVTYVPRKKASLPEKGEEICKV
Briefly: IP1 production assay, antagonist mode, co-stimulation with EC80 LTD4. Type of assay: cell-based. The following applies: for inhibition at 30 µM: HEK293, compound 30 µM, LTD4 at EC80, HEK293, wild-type CysLT1R, read-out: inhibition of LTD4-induced IP1 production, single-concentration screen; for Emax: HEK293, read-out: CysLT1R (LTD4) % Max Inhibition ± SEM. The method, then:
(§1) For this assay, we used the Cisbio IP-One kit as previously described. […] At 48 h post-transfection, the media was removed and the cells were washed with fresh Hank’s Balanced Salt Solution (HBSS). […] After compound stimulation, the cells were incubated for 1 h at 37 °C and stimulated with IP1-D2 and Ab-Crypt reagents in Lysis Buffer. The cells were then incubated at room temperature for an additional hour. […] Normalized data were plotted using either the three-parameter or four-parameter EC50/IC50 fits of GraphPad Prism 8 (San Diego). […] Data represent the means ± SEM of at least three independent experiments performed in quadruplicate.

In a further assay the target is T2, wild-type CysLT2R (Homo sapiens, UniProt Q9NS75).
T2 construct: expressed in transfected cells; host or cells: HEK293 (ATCC CRL-1573), transient transfection with Lipofectamine 3000
T2 sequence (Q9NS75 1-346): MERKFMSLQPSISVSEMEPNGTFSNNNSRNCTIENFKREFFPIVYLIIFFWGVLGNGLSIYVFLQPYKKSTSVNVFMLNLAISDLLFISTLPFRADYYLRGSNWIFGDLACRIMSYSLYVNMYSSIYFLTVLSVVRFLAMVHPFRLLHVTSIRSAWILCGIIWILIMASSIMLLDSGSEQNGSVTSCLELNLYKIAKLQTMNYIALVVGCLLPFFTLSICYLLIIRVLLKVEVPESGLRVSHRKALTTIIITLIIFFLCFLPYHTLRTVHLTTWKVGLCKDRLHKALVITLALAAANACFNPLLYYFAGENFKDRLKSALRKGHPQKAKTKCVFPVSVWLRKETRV
The assay is described as above. It is filed as cell-based. The following applies: for inhibition at 30 µM: HEK293, compound 30 µM, LTD4 at EC80, HEK293, wild-type CysLT2R, read-out: inhibition of LTD4-induced IP1 production, single-concentration screen; for Emax: HEK293, read-out: CysLT2R (LTD4) % Max Inhibition ± SEM. The method, then:
as §1

Consider `O=C(O)CNS(=O)(=O)c1cccc(NC(=O)c2ccc(C3CCC3)cc2)c1` [BRI-12429], for which the remaining activity at 30 µM at wild-type CysLT1R was 72.3%; on wild-type CysLT2R it was 68%.
For `CN(C(=O)c1ccc(C(=O)Nc2ccsc2C(N)=O)cc1)c1ccccc1` [BRI-12430] the same measures were 79.5% and 92.5%.
`CN(CCCc1cc(-c2ccc(F)cc2)n[nH]1)S(=O)(=O)c1[nH]ncc1C(=O)O` [BRI-12431]: the results for the remaining activity at 30 µM on wild-type CysLT1R and at wild-type CysLT2R were 90.9% and 63.2%, respectively.
For `COc1ccc(N(CCC(=O)O)S(=O)(=O)c2csc(-c3ccc(F)cc3)n2)cc1` [BRI-12432] the same measures were 81% and 76.9%.
Taken in the same sequence, the figures for `O=C(O)CNC(=O)c1ccc(NS(=O)(=O)c2csc(-c3ccc(Cl)cc3)n2)cc1` [BRI-12433] were 76.2% and 62.7%.
With `CCN(CC)C(=O)c1ccc(C(=O)OCc2cc(C(C)=O)no2)cc1` [BRI-12434], the remaining activity at 30 µM on wild-type CysLT1R worked out at 57.6%; on wild-type CysLT2R, 62%.
As for `Cc1ccccc1Nc1nc2sc(C(=O)NCCc3nnc4n3CCNC4=O)cc2s1` [BRI-12435], on wild-type CysLT1R, the remaining activity at 30 µM stood at 54.5%, the inhibition at 30 µM was not below 50% and the Emax came to 46 ± 20%. The remaining activity at 30 µM at wild-type CysLT2R came to 77.1%.
As for `O=C(O)C1CN(C(=O)Nc2cc(Br)ccn2)CCO1` (centres unmarked) [BRI-12436], the remaining activity at 30 µM on wild-type CysLT1R was 93.9%; at wild-type CysLT2R, 67.5%.
As for `Cc1ccc(C(NS(=O)(=O)c2ccc(C(=O)NCC(=O)O)cc2)c2ccccn2)cc1` (centres unmarked) [BRI-12437], the remaining activity at 30 µM was determined as 91.9% on wild-type CysLT1R and 80.5% at wild-type CysLT2R.
Consider `Cc1cccn2cc(-c3cccc(NC(=O)Cn4c(=O)[nH]c(=O)c5ccccc54)c3)nc12` [BRI-12438], for which the remaining activity at 30 µM on wild-type CysLT1R was 62.6%; at wild-type CysLT2R, 88.7%.
Taken in the same sequence, the figures for `O=C(O)C(Cc1c[nH]c2ncccc12)NS(=O)(=O)c1csc(-c2ccc(F)cc2)n1` (centres unmarked) [BRI-12439] were 88.3% and 72.4%.
For `O=C(O)CNC(=O)c1ccc(NC(=O)c2cnc3ccccc3c2)cc1` [BRI-12440], the figures for the remaining activity at 30 µM at wild-type CysLT1R and at wild-type CysLT2R were 95.2% and 75%, respectively.
As for `O=C(O)CNC(=O)c1ccc(NC(=O)CCc2cccc(F)c2F)cc1` [BRI-12441], the remaining activity at 30 µM was 88.3% at wild-type CysLT1R and 70.9% on wild-type CysLT2R.
Taken in the same sequence, the figures for `O=C(O)CNC(=O)c1ccc(NC(=O)CCn2cccc2)cc1` [BRI-12442] were 74.5% and 51.7%.
With `COc1ccccc1OCc1ccc(C(=O)N[C@@H](CC(=O)O)c2ccc(Cl)cc2)o1` [BRI-12443], the results for the remaining activity at 30 µM on wild-type CysLT1R and on wild-type CysLT2R were 84.5% and 82.3%, respectively.
For `Cc1cnnn1-c1ccc(NC(=O)c2cccc(NC(=O)CCCc3cccs3)c2)cc1` [BRI-12444] the same measures were 96.1% and 68.2%.
Taken in the same sequence, the figures for `CC(C)(C)n1nnc(COC(=O)C2OCCc3ccccc32)n1` (centres unmarked) [BRI-12445] were 86.6% and 67.7%.
For the molecule `O=C(Nc1ccc(C(=O)NC2CCCCC2)c(O)c1)c1ccc(F)c(S(=O)(=O)NC2CC2)c1` [BRI-12446], the figures for the remaining activity at 30 µM on wild-type CysLT1R and on wild-type CysLT2R were 72.4% and 67.7%, respectively.
For `NC(=O)Nc1ccc(C(=O)NCc2c(C(=O)O)oc3ccccc23)cc1` [BRI-12447] the same measures were 85.5% and 52.9%.
For `Cc1nc2c(C(N)=O)cnn2c(C)c1CCC(=O)N(C)c1ccc2cc[nH]c2c1` [BRI-12448], the remaining activity at 30 µM stood at 95.9% at wild-type CysLT1R and 88.5% on wild-type CysLT2R.
For `O=C(O)CC1CN(S(=O)(=O)C=Cc2ccc(Cl)cc2)c2ccccc21` (centres unmarked) [BRI-12449] the same measures were 67.5% and 67.8%.
Turning to `CN(CC(=O)O)C(=O)c1ccc(-c2ccc(NC(=O)C(C)(C)C)nc2)o1` [BRI-12450], on wild-type CysLT1R, the remaining activity at 30 µM stood at 57.6%, the inhibition at 30 µM is not below 50% and the Emax is 44 ± 25%. Further, on wild-type CysLT2R, the remaining activity at 30 µM stood at 41.1%, the inhibition at 30 µM was not below 50% and the Emax came out at 24 ± 8%.
Turning to `O=C(O)CNS(=O)(=O)c1ccc(-c2ccc3c(c2)CCC3)s1` [BRI-12451], the remaining activity at 30 µM at wild-type CysLT1R was 65.3%; at wild-type CysLT2R, 61.2%.
Taken in the same sequence, the figures for `O=C(Cc1ccc(S(=O)(=O)CCO)cc1)Nc1ccc(-c2nc3cccc(Cl)c3s2)cc1` [BRI-12452] were 76.5% and 77.4%.
Regarding `NC(=O)CNC(=O)c1ccc(CNC(=O)c2cc3ccc(F)cc3[nH]c2=O)cc1` [BRI-12453], the remaining activity at 30 µM at wild-type CysLT1R was found to be 88.3%. For the same molecule, at wild-type CysLT2R, the remaining activity at 30 µM came out at 49.5%, the inhibition at 30 µM is not below 50% and the Emax was 3 ± 7%.
For `NC(=O)CN1CCN(C(=O)c2ccccc2NC(=O)c2ccc(Cl)cc2)CC1=O` [BRI-12454], on wild-type CysLT1R, the remaining activity at 30 µM was 77.4%. At wild-type CysLT2R, the remaining activity at 30 µM was 48.4%, the inhibition at 30 µM is not below 50% and the Emax stood at 6 ± 10%.
Consider `NC(=O)c1ncn(C2CCCN(c3nc(-c4ccccc4)cs3)C2)n1` (centres unmarked) [BRI-12455], for which the remaining activity at 30 µM is 84.2% at wild-type CysLT1R and 71.1% at wild-type CysLT2R.
For `O=C(O)CN(CC(=O)O)S(=O)(=O)Cc1cc(Cl)cc(Cl)c1` [BRI-12456] the same measures were 96.3% and 65.2%.
For `O=C(O)c1cccc(NC(=O)c2ccc(N3CCNC3=O)cc2)c1` [BRI-12457] the same measures were 83.8% and 67.4%.
For the molecule `CCc1ncnc(N[C@H]2C[C@@H](CNC(=O)c3ccn4cc(C)nc4c3)C2)c1F` [BRI-12458], at wild-type CysLT1R, the remaining activity at 30 µM stood at 51.3%, the inhibition at 30 µM was not below 50% and the Emax turned out to be 38 ± 16%. On wild-type CysLT2R, the remaining activity at 30 µM came to 40.9%, the inhibition at 30 µM was not below 50% and the Emax stood at 13 ± 10%.
For `O=C(c1cc(C(F)(F)F)n[nH]1)N1CCC2(C1)CN(C(=O)[C@@H]1C[C@H]1c1cccnc1)C2` [BRI-12459], the values for the remaining activity at 30 µM at wild-type CysLT1R and on wild-type CysLT2R were 77.6% and 69.1%, respectively.
Taken in the same sequence, the figures for `O=C(O)CC(NS(=O)(=O)Cc1cccc2cccnc12)c1cnn(-c2ccccc2)c1` (centres unmarked) [BRI-12460] were 83.9% and 73.5%.
Taken in the same sequence, the figures for `COc1ccccc1C(=O)NCC1CN(C(=O)c2ccc3[nH]c(=O)n(C)c3c2)C1` [BRI-12461] were 87.6% and 58.4%.
Taken in the same sequence, the figures for `Cc1ccc2c(CC(=O)N3CCN(C(=O)c4ccc(C(N)=O)o4)CC3)c[nH]c2c1` [BRI-12462] were 77.1% and 78.1%.
Regarding `Cc1nonc1CC(=O)NC1(CNC(=O)c2cc3occc3s2)CCC1` [BRI-12463], the remaining activity at 30 µM was determined as 81.2% on wild-type CysLT1R and 57.8% at wild-type CysLT2R.
`CC(CNS(=O)(=O)c1csc(-c2ccc(F)cc2)n1)C(=O)O` (centres unmarked) [BRI-12464]: the remaining activity at 30 µM on wild-type CysLT1R is 103%; at wild-type CysLT2R it was 60.8%.
Taken in the same sequence, the figures for `O=C(O)CCNC(=O)c1nccnc1C(=O)Nc1ccc(Cl)cc1` [BRI-12465] were 84.7% and 59.9%.
As to `Cc1ccc2ncc(C(=O)NC3CN(C(=O)c4cc(C(N)=O)cs4)C3)n2c1` [BRI-12466], the remaining activity at 30 µM on wild-type CysLT1R is 67.7%. At wild-type CysLT2R, the remaining activity at 30 µM stood at 39%, the inhibition at 30 µM was not below 50% and the Emax is 12 ± 6%.
As to `O=C(NCC1(O)CN(C(=O)c2ccc(=O)[nH]c2)C1)c1ccc2c(c1)CCC2` [BRI-12467], the remaining activity at 30 µM came to 69.4% on wild-type CysLT1R and 53.8% at wild-type CysLT2R.
`COc1cccc(CC(=O)N[C@H]2[C@@H]3CC[C@@H](C3)[C@H]2C(=O)O)c1Cl` [BRI-12468]: the remaining activity at 30 µM on wild-type CysLT1R turned out to be 89.1%; on wild-type CysLT2R, 64.6%.
For `CCOc1ccc(NC(=O)c2cccn3nnnc23)c(C(N)=O)c1` [BRI-12469] the same measures were 80.7% and 52.8%.
